Reference: patent US20230382924A1, “MODULATORS OF CYSTIC FIBROSIS TRANSMEMBRANE CONDUCTANCE REGULATOR” (VERTEX PHARMACEUTICALS INCORPORATED, priority 2020, published 2023)

What was measured:
CFTR [1] = target: T1, CFTR (Homo sapiens, UniProt P13569); test: Membrane Potential Dye, Enteroid Assay A; type: cell-based; conditions: for EC50: read-out: Ent. A EC50
How it was run: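 Enteroid cells were loaded with methyl oxonol membrane potential dye (plus CaCCinh-A01 and Chicago Sky Blue) for 25 min at room temperature. Chloride transport was started by switching to chloride-free gluconate stimulation solution, with fluorescence read for 15 min. Activity was expressed as % of a triple-combination CFTR modulator control (3 μM, 3 μM, 300 nM acute).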

CFTR [2] = target: T1, CFTR; test: Membrane Potential Dye, Enteroid Assay B; type: cell-based; conditions: for EC50: read-out: Ent. B EC50
Description: Base medium (ADF+++) consisted of Advanced DMEM/Ham's F12, 2 mM Glutamax, 10 mM HEPES, […] penicillin/streptomycin.
Bath 1 Buffer consisted of 1 mM MgCl2, 160 mM NaCl, 4.5 mM KCl, 10 mM HEPES, 10 mM Glucose, 2 mM CaCl2).
Chloride Free Buffer consisted of 1 mM Magnesium Gluconate, 2 mM Calcium Gluconate, 4.5 mM Potassium Gluconate, 160 mM Sodium Gluconate, 10 mM HEPES, 10 mM Glucose.
Bath 1 Dye Solution consisted of Bath 1 Buffer, 0.04% Pluronic F127, 20 μM Methyl Oxonol, 30 μM CaCCinh-A01, 30 μM Chicago Sky Blue.
Chloride Free Dye Solution consisted of Chloride Free Buffer, 0.04% Pluronic F127, 20 μM Methyl Oxonol, 30 μM CaCCinh-A01, 30 μM Chicago Sky Blue.
3. Enteroid Cell Harvesting and Seeding
Cells were recovered in cell recovery solution, collected by centrifugation at 650 rpm for 5 min at 4° C., resuspended in TryPLE and incubated for 5 min at 37° C. Cells were then collected by centrifugation at 650 rpm for 5 min at 4° C. and resuspended in IEMM containing 10 μM ROCK inhibitor (RI).
5. Membrane Potential Dye, Enteroid Assay B
Briefly, cells were washed 5 times in Bath 1 Buffer. Bath 1 Dye Solution was added and the cells were incubated for 25 min at room temperature. Following dye incubation, cells were washed 3 times in Chloride Free Dye Solution. Chloride transport was initiated by addition of Chloride Free Dye Stimulation Solution and the fluorescence signal was read for 15 min.

T1 sequence (P13569 with tags, fused parts or gaps DEL508-508): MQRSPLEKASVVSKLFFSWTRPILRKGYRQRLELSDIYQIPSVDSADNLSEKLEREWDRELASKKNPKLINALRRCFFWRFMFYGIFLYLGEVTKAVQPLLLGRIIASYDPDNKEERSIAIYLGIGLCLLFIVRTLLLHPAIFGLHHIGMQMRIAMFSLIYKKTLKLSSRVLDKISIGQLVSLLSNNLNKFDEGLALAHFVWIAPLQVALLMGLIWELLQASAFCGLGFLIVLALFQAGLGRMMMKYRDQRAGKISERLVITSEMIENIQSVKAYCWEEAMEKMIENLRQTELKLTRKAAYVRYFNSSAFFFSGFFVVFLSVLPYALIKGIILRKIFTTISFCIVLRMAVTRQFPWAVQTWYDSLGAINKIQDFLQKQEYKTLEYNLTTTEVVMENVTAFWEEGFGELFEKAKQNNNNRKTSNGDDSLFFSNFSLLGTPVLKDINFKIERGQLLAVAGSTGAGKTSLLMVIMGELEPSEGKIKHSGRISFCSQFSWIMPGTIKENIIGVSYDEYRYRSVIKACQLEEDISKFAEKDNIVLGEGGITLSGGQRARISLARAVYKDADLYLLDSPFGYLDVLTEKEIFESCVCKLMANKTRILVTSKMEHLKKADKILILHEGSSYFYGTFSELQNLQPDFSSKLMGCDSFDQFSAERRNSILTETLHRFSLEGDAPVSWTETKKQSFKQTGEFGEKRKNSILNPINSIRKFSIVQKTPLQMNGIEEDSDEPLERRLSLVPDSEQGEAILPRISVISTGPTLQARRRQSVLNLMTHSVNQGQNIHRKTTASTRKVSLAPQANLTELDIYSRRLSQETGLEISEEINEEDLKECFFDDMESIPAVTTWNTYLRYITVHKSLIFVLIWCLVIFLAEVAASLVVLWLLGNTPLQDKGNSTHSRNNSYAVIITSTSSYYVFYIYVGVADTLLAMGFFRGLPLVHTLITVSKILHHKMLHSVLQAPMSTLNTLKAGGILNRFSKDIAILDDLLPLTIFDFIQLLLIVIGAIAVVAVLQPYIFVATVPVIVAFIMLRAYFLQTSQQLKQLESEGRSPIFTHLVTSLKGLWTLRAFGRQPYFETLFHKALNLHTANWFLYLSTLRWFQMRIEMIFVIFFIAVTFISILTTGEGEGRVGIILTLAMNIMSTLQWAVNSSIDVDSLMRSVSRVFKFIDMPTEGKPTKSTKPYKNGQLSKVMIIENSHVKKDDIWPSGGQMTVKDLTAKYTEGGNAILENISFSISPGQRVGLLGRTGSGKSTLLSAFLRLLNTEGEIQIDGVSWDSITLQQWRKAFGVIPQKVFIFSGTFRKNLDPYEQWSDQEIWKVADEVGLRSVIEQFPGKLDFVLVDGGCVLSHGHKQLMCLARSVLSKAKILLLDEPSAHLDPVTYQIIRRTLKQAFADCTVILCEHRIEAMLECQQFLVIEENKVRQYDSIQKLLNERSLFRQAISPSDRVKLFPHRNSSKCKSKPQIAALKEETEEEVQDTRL

| Ent. A Max Activity (CFTR [1]; Table 8) | EC50 (CFTR [1]; Table 8) [nM] | Ent. B Max Activity (CFTR [2]; Table 8) | EC50 (CFTR [2]; Table 8) [nM] | EC50 (CFTR [1]; Table 9) [nM] | EC50 (CFTR [2]; Table 9) [nM] | Ent. A Max Activity (CFTR [1]; Table 9) | Ent. B Max Activity (CFTR [2]; Table 9) | SMILES |
| --- | --- | --- | --- | --- | --- | --- | --- | --- |
| + (+ is <30%) | 3000 to 30000 | + (+ is <30%) |  |  |  |  |  | Cc1cccc(C)c1-c1cc2nc(n1)NS(=O)(=O)c1cccc(c1)C(=O)NC[C@H](c1ccc(C(C)(C)C)cc1)O2 (single isomer, unassigned) [Compound 4] |
| +++ (+++ is >60%) | < 1000 | +++ (+++ is >60%) | < 1000 |  |  |  |  | Cc1cccc(C)c1-c1cc2nc(n1)NS(=O)(=O)c1cccc(c1)C(=O)NCC(c1ccc(C3(C(F)(F)F)CC3)cc1)O2 (single isomer, unassigned) [Compound 11, 6-(2,6-Dimethylphenyl)-2,2-dioxo-10-[4-[1-(trifluoromethyl)cyclopropyl]phenyl]-9-oxa-2λ^6-thia-3,5,12,19-tetrazatricyclo[12.3.1.14,8]nonadeca-1(18),4(19),5,7,14,16-hexaen-13-one] |
|  |  |  |  | < 1000 | < 1000 | +++ (+++ is >60%) | +++ (+++ is >60%) | Cc1cccc(C)c1-c1cc2nc(n1)NS(=O)(=O)c1cccc(c1)C(=O)NC[C@H](c1ccc(CCC(C)(C)C)cc1)O2 (stereo in doubt) [Compound 149] |
|  |  |  |  | < 1000 | < 1000 | ++ (++ is 30-60%) | ++ (++ is 30-60%) | Cc1cccc(C)c1-c1cc2nc(n1)NS(=O)(=O)c1cccc(c1)C(=O)NC[C@H](c1ccc(/C=C/C(C)(C)C)cc1)O2 (stereo in doubt) [Compound 150] |
|  |  |  |  | < 1000 | < 1000 | +++ (+++ is >60%) | +++ (+++ is >60%) | Cc1cccc(C)c1-c1cc2nc(n1)NS(=O)(=O)c1cccc(c1)C(=O)NC[C@H](c1ccc(/C=C/C(C)(C)C)cc1)O2 (stereo in doubt) [Compound 151] |

The next lines start with the compound.

| SMILES | Ent. A Max Activity (CFTR [1]; Table 8) | EC50 (CFTR [1]; Table 8) [nM] | Ent. B Max Activity (CFTR [2]; Table 8) | EC50 (CFTR [2]; Table 8) [nM] | EC50 (CFTR [1]; Table 9) [nM] | EC50 (CFTR [2]; Table 9) [nM] | Ent. A Max Activity (CFTR [1]; Table 9) | Ent. B Max Activity (CFTR [2]; Table 9) |
| --- | --- | --- | --- | --- | --- | --- | --- | --- |
| Cc1cccc(C)c1-c1cc2nc(n1)NS(=O)(=O)c1cccc(c1)C(=O)NCC(c1ccc([Si](C)(C)C)cc1)O2 (single isomer, unassigned) [Compound 17, 6-(2,6-dimethylphenyl)-2,2-dioxo-10-(4-trimethylsilylphenyl)-9-oxa-2λ^6-thia-3,5,12,19-tetrazatricyclo[12.3.1.14,8]nonadeca-1(18),4(19),5,7,14,16-hexaen-13-one] |  |  |  |  | < 1000 | < 1000 |  |  |
| Cc1cccc(C)c1-c1cc2nc(n1)NS(=O)(=O)c1cccc(c1)C(=O)N[C@H](CC(C)C)[C@@H](c1ccc(C(C)(C)C)cc1)O2 (single isomer, unassigned) [Compound 39] |  |  |  |  | < 1000 | < 1000 | +++ (+++ is >60%) | +++ (+++ is >60%) |
| Cc1cccc(C)c1-c1cc2nc(n1)NS(=O)(=O)c1cccc(c1)C(=O)N[C@H](CC(C)C)[C@@H](c1ccc(C(C)(C)C)cc1)O2 (single isomer, unassigned) [Compound 40] |  |  |  |  | < 1000 |  | +++ (+++ is >60%) | +++ (+++ is >60%) |
| Cc1cccc(C)c1-c1cc2nc(n1)NS(=O)(=O)c1cccc(c1)C(=O)N[C@@H](CC13CC4CC(CC(C4)C1)C3)CO2 (single isomer, unassigned) [Compound 110, 11-(1-adamantylmethyl)-6-(2,6-dimethylphenyl)-2,2-dioxo-9-oxa-2λ^6-thia-3,5,12,19-tetrazatricyclo[12.3.1.14,8]nonadeca-1(18),4(19),5,7,14,16-hexaen-13-one] |  |  |  |  | < 1000 | < 1000 | +++ (+++ is >60%) | +++ (+++ is >60%) |
| Cc1cccc(C)c1-c1cc2nc(n1)NS(=O)(=O)c1cccc(c1)C(=O)N[C@H](C)[C@H](C)O2 [Compound 483] |  |  |  |  |  | 1000 to 3000 |  | + (+ is <30%) |
| Cc1cccc(C)c1-c1cc2nc(n1)NS(=O)(=O)c1cccc(c1)C(=O)N[C@H](C)[C@H](C)O2 [Compound 484] |  |  |  |  |  | 3000 to 30000 |  | ++ (++ is 30-60%) |
